Several values for one entry are separate records, joined by “and”; a condition that tells them apart may be missing. Equal values may be shown once.
How the values were obtained:
Type in all cases: in vivo, Domestic swine
[1] = tested on: intimal hyperplasia in the vein of AV fistulae between the carotid artery and internal jugular vein; test: One-month dose optimization: PDT of bilateral end-to-side AV fistulae, morphometric analysis of vein cross-sections; design: key to PDT-treated fistula thrombosed (T) / PDT-treated fistula thrombosed: T = thrombosed; conditions: for Percent Lumen Compromised by Intimal Hyperplasia, PDT, Block #1 / Percent Lumen Compromised by Intimal Hyperplasia, PDT, Block #2 / Percent Lumen Compromised by Intimal Hyperplasia, Control-PDT, Block #1, Mean / Percent Lumen Compromised by Intimal Hyperplasia, Control-PDT, Block #2, Mean / Percent Lumen Compromised by Intimal Hyperplasia, PDT, Block #2, Mean / Percent Lumen Compromised by Intimal Hyperplasia, PDT, Block #1, Mean / PDT-treated fistula thrombosed (T) / Percent Lumen Compromised by Intimal Hyperplasia, Control-PDT, Block #1 / Percent Lumen Compromised by Intimal Hyperplasia, Control-PDT, Block #2: 40 min OR lamp light
Excerpt: Domestic swine (male, 40-50 kg) were used for experiments related to the present invention. Extensive research has been performed to characterize the changes leading to intimal hyperplasia (IH) in the arteries and veins of swine, which closely resemble those in humans (22). AV fistulae were created in several pigs to confirm that measurable IH developed in the vein, just distal to the anastomoses, within one month (FIG. 1A).
Pigs were recovered and left for four weeks at which time they were exsanguinated and perfused with 10% formalin. The fistulae were surgically excised for processing and wax embedding for histology (FIGS. 1A and 2). Wax blocks containing the fistulae were cut to provide sections containing a cross-section of the anastomoses, including the artery and vein distal to the sutures (FIGS. 1A, 1B, and 3).
A porous balloon catheter was introduced into the lumen of veins to deliver either 2 mL of BPD-MA (diluted in 5% dextrose in water) or 5% dextrose in water (control), at a delivery pressure of 2 mm Hg. Two minutes later, the photosensitizer (or dextrose) was rinsed out with heparinized saline before light exposure.
The adventitia of the vein was exposed to the operating room (OR) lamp light for 40 minutes (a combination of incandescent bulbs and fluorescence tubes—approximately 1 J/cm^2).
(§1) Measurements and observations were made by morphometric analysis of cross-sections of fistulae stained with Verhoeff's elastic to assess the integrity of the vessel wall and also clearly demarcate the internal elastic lamina (IEL) for the measurement of IH. Areas within the lumen and those circumscribed by the internal elastic lamina (IEL) and the external elastic lamina (EEL) were measured directly using the Optimas (Optimas Corporation, Bothell, Wash., USA) program. The areas of the intima and the media were calculated by subtraction: intimal area equals the […], and medial area equals EEL area minus IEL area.
Statistical analysis was conducted using the two tailed t-Test (two-sample assuming unequal variances) for comparisons between groups of PDT-treated and control fistulae and paired t-tests for paired comparisons of PDT-treated and control fistulae.
End-to-side AV fistulae between the carotid artery and internal jugular vein were treated at four different BPD-MA doses (0.015, 0.15, 0.5 & 1.5 mg/2 mL) and exposed to 40 minutes of operating room (OR) lamp and ambient light to determine the optimal doses required to inhibit IH while causing minimal damage to the vein wall. Bilateral AV fistulae were created. For example, one side was treated with saline and 40 min. OR lamp light, while the other side was treated with BPD-MA (0.015 mg/2 mL or the other doses) and 40 min. OR lamp light after creating the anastomoses. At least six pigs were treated using each BPD-MA dose and the 40 minutes OR lamp light delivery system.
Optimization of PS and radiation dose was performed. Bilateral end-to-side AV fistula between the carotid artery and jugular vein were created in 29 pigs. Animals were sacrificed 4 weeks after PDT, and the fistulae were surgically excised and processed for histology. Computer-assisted measurement of the lumen area and,the area delimited by the internal elastic lamina (IEL) and external elastic lamina (EEL) was performed on 5 sections of the vein. The IH was calculated by subtracting the lumen area from the […]. Medial hyperplasia was calculated by subtracting the IEL area from the EEL area.
For each fistula, the percent of the lumen compromised by the intima hyperplasia (%LCIH=IEL−Lumen/IEL) was calculated for the first two complete blocks from the tip of the anastomosis, since IH is most often observed clinically within 1 cm of the anastomosis. Differences in the % LCIH between control and treated sides were averaged for each dose group. Results are presented in Tables 1 a and 1b as well as illustrated in FIGS. 2 and 3.

[2] = tested on: PCNA positive (proliferating) cells in the vein; test: PCNA immunocytochemistry of AV fistula veins 48 hours after PDT
Protocol: In Example 4, immunohistochemistry was use to study the early phase of cell proliferation. Immunocytochemistry for the proliferating cell nuclear antigen (PCNA, mouse antibody clone PC10, Sigma) was used to assess cell proliferation in the vein. PCNA positive cells were counted using the Optimas image analysis program.
For the purposes of determining the early cellular effects of PDT on the vein, bilateral AV fistulae were created in six pigs and treated sides were given 0.15 mg BPD-MA (0.15 mg/2 mL) and 40 minutes OR light. After 48 hours these pigs were sacrificed and the fistulae were recovered and processed for histological evaluation. This is not enough time for IH to have developed, but the cellular activation which leads to IH may be detectable. […] Immunocytochemistry for the proliferating cell nuclear antigen (PCNA) was used to assess cell proliferation in the tissue (Table 3).

[3] = tested on: elastic lamina of the vein; test: Elastin (Verhoeff's elastic) staining of AV fistula veins after PDT; conditions: 48 h and 1 month samples
Protocol: as §1

[4] = 0.015 mg BPD-MA/2 mL into vein lumen, one month, individual pigs
[5] = 0.015 mg BPD-MA/2 mL, one month, group mean
[6] = 0.015 mg BPD-MA/2 mL, one month, individual pigs
[7] = 0.15 mg BPD-MA, OR lamp, one month, group mean
[8] = 0.15 mg BPD-MA, OR lamp, one month, individual pigs
[9] = 0.15 mg BPD-MA/2 mL into vein lumen, one month, individual pigs
[10] = 0.15 mg BPD-MA/2 mL, one month, group mean
[11] = 0.15 mg BPD-MA/2 mL, one month, individual pigs
[12] = 0.15 mg BPD-MA, one month, relative to control mean
[13] = 0.15 mg BPD-MA, one month, treated vs control fistulae
[14] = 0.5 mg BPD-MA/2 mL into vein lumen, one month, individual pigs
[15] = 0.5 mg BPD-MA/2 mL, one month, group mean
[16] = 0.5 mg BPD-MA/2 mL, one month, individual pigs
[17] = 1.5 mg BPD-MA/2 mL into vein lumen, one month, individual pigs
[18] = 1.5 mg BPD-MA/2 mL, one month, group mean
[19] = 1.5 mg BPD-MA/2 mL, one month, individual pigs
[20] = 0.15 mg BPD-MA (0.15 mg/2 mL), 40 minutes OR light, six pigs

benzoporphyrin derivative monoacid ring A [BPD-MA]
Percent Lumen Compromised by Intimal Hyperplasia, PDT, Block #1 [1, 4]: 3.1% and 21.3% and 9% and 30.3% and 3.4% and 2.2% | Percent Lumen Compromised by Intimal Hyperplasia, PDT, Block #2 [1, 4]: 2.4% and 2.3% and 5% and 13% and 8.6% and 1.8% | Percent Lumen Compromised by Intimal Hyperplasia, Control-PDT, Block #1, Mean [1, 5]: 1.5% | Percent Lumen Compromised by Intimal Hyperplasia, Control-PDT, Block #2, Mean [1, 5]: 2.9% | Percent Lumen Compromised by Intimal Hyperplasia, PDT, Block #2, Mean ([1]; 0.015 mg BPD-MA/2 mL, one month, group mean, p = 0.36 vs control): 5.5% | Percent Lumen Compromised by Intimal Hyperplasia, PDT, Block #1, Mean ([1]; 0.015 mg BPD-MA/2 mL, one month, group mean, p = 0.39 vs control): 11.6% | PDT-treated fistula thrombosed (T) [1, 6]: T | Percent Lumen Compromised by Intimal Hyperplasia, Control-PDT, Block #1 [1, 6]: −0.2% and 10.2% and −4% and −27.2% and 24.9% and 5.3% | Percent Lumen Compromised by Intimal Hyperplasia, Control-PDT, Block #2 [1, 6]: −0.2% and 27.1% and −2% and −6.5% and −1.9% and 0.9% | Change in amount of IH between control and treated veins ([1]; 0.015 mg BPD-MA, one month): little change | Percent Medial Hyperplasia, PDT, Block #1, Mean [1, 7]: 10.0% | Percent Medial Hyperplasia, PDT, Block #2, Mean [1, 7]: 11.5% | PDT-treated fistula thrombosed [1, 8]: T | Percent Medial Hyperplasia, PDT, Block #1 [1, 8]: 5.9% and 15.3% and 6.2% and 12.5% and 9.8% | Percent Medial Hyperplasia, PDT, Block #2 [1, 8]: 10.3% and 5.7% and 18.2% and 9.8% and 13.7% | Percent Lumen Compromised by Intimal Hyperplasia, PDT, Block #1 [1, 9]: 7.1% and 19.3% and 4.6% and 9.2% and 6.9% and 21.1% | Percent Lumen Compromised by Intimal Hyperplasia, PDT, Block #2 [1, 9]: 7% and 9.1% and 6.7% and 2.5% and 3.6% and 8.6% | Percent Lumen Compromised by Intimal Hyperplasia, Control-PDT, Block #1, Mean [1, 10]: 7.0% | Percent Lumen Compromised by Intimal Hyperplasia, Control-PDT, Block #2, Mean [1, 10]: 9.25% | Percent Lumen Compromised by Intimal Hyperplasia, PDT, Block #2, Mean ([1]; 0.15 mg BPD-MA/2 mL, one month, group mean, p = 0.06 vs control): 6.3% | Percent Lumen Compromised by Intimal Hyperplasia, PDT, Block #1, Mean ([1]; 0.15 mg BPD-MA/2 mL, one month, group mean, p = 0.095 vs control): 11.4% | PDT-treated fistula thrombosed (T) [1, 11]: T | Percent Lumen Compromised by Intimal Hyperplasia, Control-PDT, Block #1 [1, 11]: 24.2% and −1.5% and 8.2% and −2.9% | Percent Lumen Compromised by Intimal Hyperplasia, Control-PDT, Block #2 [1, 11]: 2.7% and 14.8% and 0.5% and 19% | Relative reduction of intimal hyperplasia (mean PDT-induced decrease), first block [1, 12]: 38% | Relative reduction of intimal hyperplasia (mean PDT-induced decrease), second block [1, 12]: 55% | Reduction in % LCIH, first block [1, 13]: 7.0% | Reduction in % LCIH, second block [1, 13]: 9.3% | Difference in medial thickness between PDT-treated and control samples, block 2 ([1]; 0.15 mg/2 mL, one month): little difference | Difference in medial thickness between PDT-treated and control samples, first block ([1]; 0.15 mg/2 mL, one month): 44% | Percent Lumen Compromised by Intimal Hyperplasia, PDT, Block #1 [1, 14]: 18.1% and 16.6% and 32.0% | Percent Lumen Compromised by Intimal Hyperplasia, PDT, Block #2 [1, 14]: 11.2% and 6.8% and 3.4% | Percent Lumen Compromised by Intimal Hyperplasia, Control-PDT, Block #1, Mean [1, 15]: 0.5% | Percent Lumen Compromised by Intimal Hyperplasia, Control-PDT, Block #2, Mean [1, 15]: 0.9% | Percent Lumen Compromised by Intimal Hyperplasia, PDT, Block #1, Mean [1, 15]: 22.2% | Percent Lumen Compromised by Intimal Hyperplasia, PDT, Block #2, Mean [1, 15]: 7.1% | PDT-treated fistula thrombosed (T) [1, 16]: T | Percent Lumen Compromised by Intimal Hyperplasia, Control-PDT, Block #1 [1, 16]: −13.0% and 5.1% and 9.4% | Percent Lumen Compromised by Intimal Hyperplasia, Control-PDT, Block #2 [1, 16]: −8.3% and 2.1% and 9.0% | Difference in IH between treated and control fistulae ([1]; 0.5 mg BPD-MA, one month): Little difference | Percent Lumen Compromised by Intimal Hyperplasia, PDT, Block #1 [1, 17]: 19.4% and 17.4% and 21.6% and 41.8% and 12.7% | Percent Lumen Compromised by Intimal Hyperplasia, PDT, Block #2 [1, 17]: 43.0% and 1.7% and 11.7% and 53.8% and 13.9% | Percent Lumen Compromised by Intimal Hyperplasia, Control-PDT, Block #1, Mean [1, 18]: −14.9% | Percent Lumen Compromised by Intimal Hyperplasia, Control-PDT, Block #2, Mean [1, 18]: −23.6% | Percent Lumen Compromised by Intimal Hyperplasia, PDT, Block #1, Mean [1, 18]: 22.6% | Percent Lumen Compromised by Intimal Hyperplasia, PDT, Block #2, Mean [1, 18]: 24.8% | PDT-treated fistula thrombosed (T) [1, 19]: T | Percent Lumen Compromised by Intimal Hyperplasia, Control-PDT, Block #1 [1, 19]: −0.7% and −13.7% and −38.9% and −6.2% | Percent Lumen Compromised by Intimal Hyperplasia, Control-PDT, Block #2 [1, 19]: −37.9% and 5.1% and −49.9% and −11.8% | Effect on IH ([1]; 1.5 mg dose BPD-MA, one month): appeared to induce IH | Effect on development of IH, high doses ([1]; PDT with high doses of BPD-MA): either did not modulate the development of IH or actually induced IH | Thrombogenicity of vessel wall, high doses ([1]; PDT with high doses of BPD-MA, one month): appeared to render the vessel wall more thrombogenic | Percent IH in PDT-treated vs control fistulae, responders only ([1]; all animals 0.015 to 1.5 mg/2 ml BPD-MA, excluding those with less than 10% IH in control fistulae, Block 1 p=0.03, Block 2 p=0.02): significantly less | Average one-month thrombosis incidence, PDT-treated fistulae ([1]; all doses (0.015-1.5 mg/2 mL BPD-MA), control fistulae 26.0%): 26.6% | Effect on IH at the anastomosis of arteriovenous grafts, low doses ([1]; low doses (0.15 mg/2 ml) locally delivered BPD-MA, ambient light from operating room lamps): resulted in the reduction of IH | Incidence of thrombosis, low-dose PDT ([1]; low-dose PDT, one month): not associated with an increase in the incidence of thrombosis | Effect of PDT on medial thickening ([1]; one month): did not affect medial thickening | Number of fistulae that thrombosed vs drug dose ([1]; one month, 0.015-1.5 mg/2 mL): correlated roughly with increasing drug dose | Statistical significance of differences in intimal thickening between PDT-treated and control veins ([1]; one month, marked with some doses (0.15 mg)): not statistically significant | MEAN PERCENT OF PCNA POSITIVE CELLS PER TISSUE AREA, PDT, BLOCK 1 [2, 20]: 0.33% | MEAN PERCENT OF PCNA POSITIVE CELLS PER TISSUE AREA, PDT, BLOCK 2 [2, 20]: 0.74% | MEAN PERCENT OF PCNA POSITIVE CELLS PER TISSUE AREA, PDT, BLOCK 3 [2, 20]: 0.65% | Reduction of number of proliferating cells at the anastomosis of the vein ([2]; low-dose PDT (0.15 mg BPD-MA)): 2 fold | Damage to the elastic lamina due to PDT [3]: no sign of damage to the elastic lamina

From patent US6609014B1, “Use of PDT to inhibit intimal hyperplasia” (QLT Inc., priority 1999, dated 2003)
